{
  "source": "patent US12357644B2",
  "about": "“Acetyl salicylic acid composition for intravenous administration, its storage, production and use” (HYLORIS DEVELOPMENTS SA, priority 2022, dated 2025)",
  "experiment": "Salicylic acid content in sample solutions kept at benchtop",
  "format": "physicochemical",
  "details": "for Average conc. salicylic acid: no pH adjustment; for Average conc. salicylic acid / Average conc. of salicylic acid: benchtop",
  "protocol": "In addition, storage stability screenings were conducted. The solutions prepared as previously described, were kept on a benchtop at 24+/−3° C. and 70% relative humidity. For media with no pH adjustment, the degradation of ASA is higher in ethanol as compared to the other media in the test (see Table 8). For media with pH adjustment, degradation of ASA in acidified TBA, acidified water and acidified water with mannitol were almost similar. Degradation in acidified TBA was higher than in acidified ethanol at 24+/−3° C. and 70% relative humidity (see Table 9).\nIt was observed that acidified ethanol has the highest solubility and stability. […] The finding of up to 72 hours stability is critical, because it allows manipulations during the manufacturing process and a manufacturing run of up to 3 days.",
  "data": [
    {"smiles": "CC(=O)Oc1ccccc1C(=O)O", "note": "[ASA, Acetyl salicylic acid]", "values": [
      {"measurement": "Average conc. salicylic acid", "setting": "60 g/L mannitol, 0 hr", "value": 0.262, "unit": "mg/mL"},
      {"measurement": "Average conc. salicylic acid", "setting": "60 g/L mannitol, 72 Hrs", "value": 0.897, "unit": "mg/mL"},
      {"measurement": "Average conc. salicylic acid", "setting": "60 g/L mannitol, 6 hrs", "value": 0.285, "unit": "mg/mL"},
      {"measurement": "Average conc. salicylic acid", "setting": "60 g/L mannitol, 12 hrs", "value": 0.312, "unit": "mg/mL"},
      {"measurement": "Average conc. salicylic acid", "setting": "60 g/L mannitol, 24 hrs", "value": 0.574, "unit": "mg/mL"},
      {"measurement": "Average conc. salicylic acid", "setting": "60 g/L mannitol, 48 hrs", "value": 0.863, "unit": "mg/mL"},
      {"measurement": "Average conc. of salicylic acid", "setting": "Acidified 60 g/L mannitol, 0 hr", "value": 0.153, "unit": "mg/mL"},
      {"measurement": "Average conc. of salicylic acid", "setting": "Acidified 60 g/L mannitol, 72 Hrs", "value": 0.403, "unit": "mg/mL"},
      {"measurement": "Average conc. of salicylic acid", "setting": "Acidified 60 g/L mannitol, 6 hrs", "value": 0.167, "unit": "mg/mL"},
      {"measurement": "Average conc. of salicylic acid", "setting": "Acidified 60 g/L mannitol, 12 hrs", "value": 0.218, "unit": "mg/mL"},
      {"measurement": "Average conc. of salicylic acid", "setting": "Acidified 60 g/L mannitol, 24 hrs", "value": 0.260, "unit": "mg/mL"},
      {"measurement": "Average conc. of salicylic acid", "setting": "Acidified 60 g/L mannitol, 48 hrs", "value": 0.322, "unit": "mg/mL"},
      {"measurement": "Average conc. of salicylic acid", "setting": "Acidified Tert-butyl alcohol, 0 hr", "value": 0.237, "unit": "mg/mL"},
      {"measurement": "Average conc. of salicylic acid", "setting": "Acidified Tert-butyl alcohol, 72 Hrs", "value": 8.176, "unit": "mg/mL"},
      {"measurement": "Average conc. of salicylic acid", "setting": "Acidified Tert-butyl alcohol, 6 hrs", "value": 0.388, "unit": "mg/mL"},
      {"measurement": "Average conc. of salicylic acid", "setting": "Acidified Tert-butyl alcohol, 12 hrs", "value": 1.737, "unit": "mg/mL"},
      {"measurement": "Average conc. of salicylic acid", "setting": "Acidified Tert-butyl alcohol, 24 hrs", "value": 3.135, "unit": "mg/mL"},
      {"measurement": "Average conc. of salicylic acid", "setting": "Acidified Tert-butyl alcohol, 48 hrs", "value": 5.403, "unit": "mg/mL"},
      {"measurement": "Average conc. of salicylic acid", "setting": "Acidified ethanol 96%, 0 hr", "value": 0.901, "unit": "mg/mL"},
      {"measurement": "Average conc. of salicylic acid", "setting": "Acidified ethanol 96%, 72 Hrs", "value": 1.627, "unit": "mg/mL"},
      {"measurement": "Average conc. of salicylic acid", "setting": "Acidified ethanol 96%, 6 hrs", "value": 0.947, "unit": "mg/mL"},
      {"measurement": "Average conc. of salicylic acid", "setting": "Acidified ethanol 96%, 12 hrs", "value": 1.130, "unit": "mg/mL"},
      {"measurement": "Average conc. of salicylic acid", "setting": "Acidified ethanol 96%, 24 hrs", "value": 1.280, "unit": "mg/mL"},
      {"measurement": "Average conc. of salicylic acid", "setting": "Acidified ethanol 96%, 48 hrs", "value": 1.430, "unit": "mg/mL"},
      {"measurement": "Average conc. of salicylic acid", "setting": "Acidified water, 0 hr", "value": 0.162, "unit": "mg/mL"},
      {"measurement": "Average conc. of salicylic acid", "setting": "Acidified water, 72 Hrs", "value": 0.402, "unit": "mg/mL"},
      {"measurement": "Average conc. of salicylic acid", "setting": "Acidified water, 6 hrs", "value": 0.168, "unit": "mg/mL"},
      {"measurement": "Average conc. of salicylic acid", "setting": "Acidified water, 12 hrs", "value": 0.217, "unit": "mg/mL"},
      {"measurement": "Average conc. of salicylic acid", "setting": "Acidified water, 24 hrs", "value": 0.269, "unit": "mg/mL"},
      {"measurement": "Average conc. of salicylic acid", "setting": "Acidified water, 48 hrs", "value": 0.327, "unit": "mg/mL"},
      {"measurement": "Average conc. salicylic acid", "setting": "Ethanol 96%, 0 hr", "value": 1.092, "unit": "mg/mL"},
      {"measurement": "Average conc. salicylic acid", "setting": "Ethanol 96%, 72 Hrs", "value": 24.768, "unit": "mg/mL"},
      {"measurement": "Average conc. salicylic acid", "setting": "Ethanol 96%, 6 hrs", "value": 1.961, "unit": "mg/mL"},
      {"measurement": "Average conc. salicylic acid", "setting": "Ethanol 96%, 12 hrs", "value": 3.315, "unit": "mg/mL"},
      {"measurement": "Average conc. salicylic acid", "setting": "Ethanol 96%, 24 hrs", "value": 18.682, "unit": "mg/mL"},
      {"measurement": "Average conc. salicylic acid", "setting": "Ethanol 96%, 48 hrs", "value": 21.522, "unit": "mg/mL"},
      {"measurement": "Average conc. salicylic acid", "setting": "Tert-butyl alcohol, 0 hr", "value": 0.543, "unit": "mg/mL"},
      {"measurement": "Average conc. salicylic acid", "setting": "Tert-butyl alcohol, 72 Hrs", "value": 18.135, "unit": "mg/mL"},
      {"measurement": "Average conc. salicylic acid", "setting": "Tert-butyl alcohol, 6 hrs", "value": 0.988, "unit": "mg/mL"},
      {"measurement": "Average conc. salicylic acid", "setting": "Tert-butyl alcohol, 12 hrs", "value": 1.669, "unit": "mg/mL"},
      {"measurement": "Average conc. salicylic acid", "setting": "Tert-butyl alcohol, 24 hrs", "value": 9.261, "unit": "mg/mL"},
      {"measurement": "Average conc. salicylic acid", "setting": "Tert-butyl alcohol, 48 hrs", "value": 16.238, "unit": "mg/mL"},
      {"measurement": "Average conc. salicylic acid", "setting": "Water, 0 hr", "value": 0.269, "unit": "mg/mL"},
      {"measurement": "Average conc. salicylic acid", "setting": "Water, 72 Hrs", "value": 0.904, "unit": "mg/mL"},
      {"measurement": "Average conc. salicylic acid", "setting": "Water, 6 hrs", "value": 0.289, "unit": "mg/mL"},
      {"measurement": "Average conc. salicylic acid", "setting": "Water, 12 hrs", "value": 0.312, "unit": "mg/mL"},
      {"measurement": "Average conc. salicylic acid", "setting": "Water, 24 hrs", "value": 0.574, "unit": "mg/mL"},
      {"measurement": "Average conc. salicylic acid", "setting": "Water, 48 hrs", "value": 0.854, "unit": "mg/mL"},
      {"measurement": "% of salicylic acid", "setting": "acidified ethanol, up to 72 hours (Limit Not more than 5%)", "value": "less than 2%"}
    ]}
  ]
}
